Numbering of substitutions follows the chain as printed.
T1: EXT1-EXT2 complex (EXT1 GlcA-T site) (Homo sapiens, UniProt Q16394)
T1 construct: 1:1 heterodimer of Golgi-luminal parts, transmembrane helix removed (EXT1 aa29-746, EXT2 aa47-718), C-terminal 8xHis kept, secreted alkaline phosphatase fusion cut off with TEV; co-expressed in FreeStyle 293-F; about 160 kDa; with Exostosin-2
T1 sequence (Q16394 29-746): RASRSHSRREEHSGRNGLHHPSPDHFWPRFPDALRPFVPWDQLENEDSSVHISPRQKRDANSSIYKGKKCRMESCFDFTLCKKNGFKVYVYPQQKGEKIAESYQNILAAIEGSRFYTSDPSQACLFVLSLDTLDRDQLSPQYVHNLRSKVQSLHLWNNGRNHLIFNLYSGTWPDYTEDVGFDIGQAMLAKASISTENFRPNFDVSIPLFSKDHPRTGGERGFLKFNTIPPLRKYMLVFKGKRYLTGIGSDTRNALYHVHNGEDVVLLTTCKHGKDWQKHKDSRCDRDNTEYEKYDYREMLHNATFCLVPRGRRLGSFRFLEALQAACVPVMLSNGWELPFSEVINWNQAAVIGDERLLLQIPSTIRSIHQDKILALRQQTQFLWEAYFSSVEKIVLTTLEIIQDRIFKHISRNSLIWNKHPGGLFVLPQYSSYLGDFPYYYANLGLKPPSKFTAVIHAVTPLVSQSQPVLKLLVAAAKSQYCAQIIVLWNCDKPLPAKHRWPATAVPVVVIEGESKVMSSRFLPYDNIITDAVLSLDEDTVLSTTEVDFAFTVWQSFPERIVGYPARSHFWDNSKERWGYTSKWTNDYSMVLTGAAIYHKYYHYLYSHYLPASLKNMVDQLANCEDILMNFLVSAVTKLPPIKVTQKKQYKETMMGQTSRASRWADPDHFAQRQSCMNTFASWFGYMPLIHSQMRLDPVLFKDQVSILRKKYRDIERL
T1 sequence (Q93063 47-718 partner): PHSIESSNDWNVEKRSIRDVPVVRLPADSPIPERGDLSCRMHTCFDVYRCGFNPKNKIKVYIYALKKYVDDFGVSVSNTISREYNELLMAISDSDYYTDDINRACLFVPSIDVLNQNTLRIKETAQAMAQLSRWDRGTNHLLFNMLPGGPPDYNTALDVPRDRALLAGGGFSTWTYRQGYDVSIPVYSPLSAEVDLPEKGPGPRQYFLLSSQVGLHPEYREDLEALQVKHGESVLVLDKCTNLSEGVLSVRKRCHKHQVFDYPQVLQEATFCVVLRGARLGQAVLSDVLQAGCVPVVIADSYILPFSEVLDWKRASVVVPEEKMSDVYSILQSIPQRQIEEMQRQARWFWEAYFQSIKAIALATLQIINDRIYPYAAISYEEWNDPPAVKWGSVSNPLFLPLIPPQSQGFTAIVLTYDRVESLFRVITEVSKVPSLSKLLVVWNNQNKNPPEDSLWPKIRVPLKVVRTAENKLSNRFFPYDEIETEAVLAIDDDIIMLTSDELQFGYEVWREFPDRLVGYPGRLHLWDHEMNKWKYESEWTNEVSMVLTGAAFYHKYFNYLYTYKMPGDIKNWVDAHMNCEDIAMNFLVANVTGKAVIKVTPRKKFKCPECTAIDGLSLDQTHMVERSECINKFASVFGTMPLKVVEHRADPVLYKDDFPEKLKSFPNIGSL

T2: EXT1-EXT2 complex (GlcNAc-T sites of EXT1 and EXT2) (Homo sapiens, UniProt Q16394+Q93063)
T2 construct: same complex as P1; separate entry only because each chain has its own GlcNAc-T site; 1:1 heterodimer (EXT1 aa29-746, EXT2 aa47-718), C-terminal 8xHis kept, alkaline phosphatase fusion cut off with TEV; FreeStyle 293-F
T2 sequence (Q16394 29-746): T1 sequence (Q16394 29-746)
T2 sequence (Q93063 47-718): T1 sequence (Q93063 47-718 partner)

T3: human EXT1 aa29-aa746 D162N/D164N (human, UniProt Q16394 29-746, D162N | D164N)
T3 construct: exostosin-1 (EXT1), human, residues 29-746, with point mutations in the GlcA-T domain; also called EXT1 D162N/D164N; source: FreeStyle 293-F cells, co-expressed with wild-type EXT2, purified as the wild-type complex; not shown: secreted alkaline phosphatase, N-terminal, cleaved; 8x His, C-terminal, kept
T3 sequence (looked up): T1 sequence (Q16394 29-746) with D134N, D136N

B1: human EXT1 (exostosin-1), N-terminally truncated, aa29-aa746 (enzyme, UniProt Q16394 29-746, looked up)
chain: T1 sequence (Q16394 29-746)
modifications: N-linked glycan at Asn330
notes: exostosin-1 (EXT1), human, residues 29-746, lacking the N-terminal transmembrane helix; Only obtained by co-expression with EXT2; Model built for aa89-aa728 with some loops missing; also called EXT1 WT; not shown: secreted alkaline phosphatase, N-terminal, cleaved; 8x His, C-terminal, kept
B2: human EXT2 (exostosin-2), N-terminally truncated, aa47-aa718 (enzyme, UniProt Q93063 47-718, looked up)
chain: T1 sequence (Q93063 47-718 partner)
modifications: N-linked glycan at Asn637
notes: exostosin-2 (EXT2), human, residues 47-718, lacking the N-terminal transmembrane helix; Only obtained by co-expression with EXT1; Model built for aa78-aa702 with some loops missing; also called EXT2 WT; not shown: secreted alkaline phosphatase, N-terminal, cleaved; 8x His, C-terminal, kept

Columns and labels:
[1] = biological target: T1, EXT1-EXT2 complex (EXT1 GlcA-T site); assay: FACE glycosyl transfer assay; type: biochemical; details: acceptor Alexa Fluor 430-labelled dp9 5 uM; 1 mM UDP-GlcA; 10 mM MnCl2; pH 7.2; 30 C; EXT1 GlcA-T domain
[2] = biological target: T1, EXT1-EXT2 complex (EXT1 GlcA-T site); assay: cryo-EM structure, […] A; type: binding; details: EXT1 GlcA-T active site; UDP-GlcA, UDP-GlcNAc and MnCl2 1 mM each added, only UDP seen; pH 7.2
[3] = biological target: T2, EXT1-EXT2 complex (GlcNAc-T sites of EXT1 and EXT2); assay: FACE glycosyl transfer assay; type: biochemical; details: acceptor Alexa Fluor 430-labelled dp8 5 uM; 1 mM UDP-GlcNAc; 10 mM MnCl2; pH 7.2; 30 C; GlcNAc-T domains of EXT1 and EXT2
[4] = biological target: B2; assay: cryo-EM structure; 0.4 mg/mL purified, co-expressed EXT1-EXT2 with 1 mM UDP-GlcNAc, 1 mM UDP-GlcA and 1 mM MnCl2; single-particle analysis, 2.8 Å; details: both partners purified
[5] = biological target: B1; assay: as above; details: both partners purified
[6] = biological target: T3, human EXT1 aa29-aa746 D162N/D164N; assay: negative stain EM; purified complex diluted to 0.02 mg/mL in buffer A (50 mM Tris pH 7.8, 150 mM NaCl); mica-carbon flotation; details: both partners purified

## O=C(O)[C@H]1O[C@H](OP(=O)(O)OP(=O)(O)OC[C@H]2O[C@@H](n3ccc(=O)[nH]c3=O)[C@H](O)[C@@H]2O)[C@H](O)[C@@H](O)[C@@H]1O [UDP-GlcA]
[1]
  FACE glycosyl transfer assay: the addition of a GlcA moiety onto dp9 enhanced the migration rate

## O=c1ccn([C@@H]2O[C@H](COP(=O)(O)OP(=O)(O)O)[C@@H](O)[C@H]2O)c(=O)[nH]1 [UDP]
[2]
  cryo-EM structure, 2.8 A: we found an additional EM density that fits a UDP ligand

## CC(=O)N[C@H]1[C@@H](OP(=O)(O)OP(=O)(O)OC[C@H]2O[C@@H](n3ccc(=O)[nH]c3=O)[C@H](O)[C@@H]2O)O[C@H](CO)[C@@H](O)[C@@H]1O [UDP-GlcNAc]
[3]
  FACE glycosyl transfer assay: the transfer of a GlcNAc residue onto dp8 led to a slower migration rate

## B1
[4]
  stoichiometry N: 1

## B2
[5]
  binding result: binds
[6]
  binding result: binds

From PMC9675754, “Structure of the human heparan sulfate polymerase complex EXT1-EXT2” (Nature Communications, 2022)
